Experimental findings from a melting point compilation (Tetko et al.; mined from patent text by program, amines drawn as free bases though some values may be those of a salt) are described below.

Consider `COC(=O)c1cc2n(c1)CCc1ccccc1C2=O`, for which the melting point (usually the temperature, or range, at which the solid turns liquid) lay within 125 to 127 °C.

On to `CCc1cccc2c(C=O)cc(Cl)c(O)c12`, for which the melting point is 139 to 142 °C.

Consider `Cc1cc(C)cc(-c2cc3cnc(N)nc3nc2N)c1`, for which the melting point lay within 298 to 302 °C.

Take `COC(=O)c1ccc(-c2ccc(-c3ccccc3)c(OS(=O)(=O)C(F)(F)F)c2)cc1`: the melting point stood at 95 °C.

`CC(c1cc2ccccc2o1)N(O)C(N)=O` (centres undefined) registered a melting point of 147 to 150 °C.

With `O=C1N(Cc2ccccc2C(F)(F)F)c2ccccc2C12COc1cc3c(cc12)OCCO3` (centres undefined), the melting point was in the range of 137 to 138 °C.

In turn, `O=C1c2cc(F)ccc2CCC1CN1CCC2(CC1)C(=O)NCN2c1ccccc1` (centres undefined) registered a melting point of 162 to 165 °C.

`CCc1nc2c(C)cc(C)nc2n1C1CCc2cc(-c3ccccc3-c3nnn[nH]3)ccc21` (centres undefined) showed a melting point of 181 °C.

As for `Fc1ccc(C(F)(F)C(F)(F)c2ccccc2Br)cc1`, the melting point is 52 to 53.5 °C.

Molecule `CCCCc1nc2c(N)nc3ccccc3c2n1CCCCSc1ccccc1` displayed a melting point of 118 to 120 °C.

As for `CC(C)c1[nH]nc2c1C(=O)c1c(NC(=O)CN3CCC(C(N)=O)CC3)cccc1-2`, the melting point lay in the range of 224 to 225 °C.

As for `CCCn1nc2c(N)nc3c(c2c1CCCCO)CCCC3`, the melting point lay within 194 to 200 °C.

In turn, `CCOC(=O)c1ccc(-c2ccc(-c3ccc(O)cc3)c(-c3ccc4c(c3)C(C)(C)CCC4(C)C)c2)cc1` displayed a melting point of 177 to 179 °C.

Molecule `CCOC(=O)NN=C(c1cccnc1)C1COCOC1` displayed a melting point of 132 °C.

In turn, `CC1(C(=O)N2C[C@@H]3C[C@H]2C(=O)O3)CC1` came in with a melting point of 101 to 102 °C.

Consider `COC(=O)c1cc(-c2ccc(OCc3ccccc3)cc2)c(=O)n2ccc3ccsc3c12`, for which the melting point was in the range of 169 to 171 °C.

In turn, `COC(=O)C(O)C(=O)C(C)Oc1ccc(Oc2nc3ccc(Cl)cc3s2)cc1` (centres undefined) yielded a melting point of 104 to 106 °C.

Molecule `CCCCCCCCC1=C(Cl)C(=O)c2ccccc2C1=O` registered a melting point of 69 to 70 °C.

`CCc1c(C)c(NC(=O)NC(C)(C)C)c(C)c2c1OCC2c1ccc(C(C)C)cc1` (centres undefined) showed a melting point of 207 to 209 °C.

Turning to `OCc1ccccc1NCc1cc2c(cc1O)CCO2`, the melting point lay in the range of 149 to 150 °C.

Molecule `CSc1ccc(C(C)Nc2nc(N)nc(C(F)(F)F)n2)cc1` (centres undefined) returned a melting point of 111 °C.

As for `COc1ccc(C(N)=Nc2ccc(C(=O)O)cc2)cc1C(C)(C)C`, the melting point is 170 to 172 °C.

As to `Cc1cnc2[nH]cc(/C=C3\N=C(N4CCCCC4)NC3=O)c2c1`, the melting point was 320 to 321 °C.

In the case of `CCCn1c(=O)c2[nH]cnc2n(CCC)c1=O`, the melting point lay within 201 to 205 °C.

As for `Cc1cc(COc2ccc(S(=O)(=O)NC[C@@H](C(=O)NO)N3CCN(C(=O)OCc4ccccc4)CC3)cc2)c2ccccc2n1`, the melting point is 162 °C.

Regarding `ClCc1ccc(-c2nc3cccc(Cl)c3o2)cc1`, the melting point fell in the range of 92 to 93 °C.

`Oc1ccc2ccc(OCCN3CCC(Cc4ccccc4)CC3)cc2c1` returned a melting point of 159 to 160 °C.

`N#Cc1ccnc(CO)c1` gave a melting point of 92 to 94 °C.

As to `Cc1cc(C)cc(Sc2c(C(C)C)c(=O)[nH]c(=O)n2CC2=CCC(CO)C2)c1` (centres undefined), the melting point fell in the range of 147 to 148 °C.

On to `Cc1ccc(S(=O)(=O)Oc2cc(Cl)c(C=O)c(Cl)c2)cc1`, for which the melting point was in the range of 77 to 80 °C.

`Cc1ccc(Oc2cccc(-c3nnc(Nc4ccc(Cl)c(Cl)c4)s3)c2)cc1` registered a melting point of 210 to 211 °C.

Molecule `NC(=O)c1ccc(CCC[N@]2C[C@@H]2c2ccccc2)s1` showed a melting point of 117 to 119 °C.

As for `Cn1nc(-c2ccccc2SCc2ccccc2)oc1=O`, the melting point fell in the range of 137 to 140 °C.

For `O=C1CCC(CCN2CC=C(c3ccccc3)CC2)CC1`, the melting point fell in the range of 94 to 96 °C.

The molecule `CC(C)(C)NC(=O)[C@@H]1C[C@H](F)CN1C(=O)[C@@H](O)[C@H](Cc1ccccc1)NC(=O)[C@H](CC(N)=O)NC(=O)OCc1ccccc1` registered a melting point of 95 to 100 °C.

Molecule `CCCc1cc(Cl)c2oc(C(=O)OCC)c(C)c2c1O` registered a melting point of 165 to 166 °C.

On to `O=c1cc(Cl)nc2sc(SCc3ccccc3)nn12`, for which the melting point lay within 138 to 140 °C.

In turn, `CC(C)C1C(=O)Nc2ccc(O)cc21` (centres undefined) displayed a melting point of 175 °C.

Molecule `O=S(=O)(O)CCc1cccnc1` returned a melting point of 275 to 278 °C.

For the molecule `CCOC(=O)COc1c(OC)cc(Cl)c2c1CN1CCc3cc(OC)c(OCc4ccccc4)cc3C1C2` (centres undefined), the melting point worked out at 134 °C.

In turn, `Cc1ccc(CC2CCN(CCOc3ccc4cc(O)ccc4c3)CC2)cc1` had a melting point of 164 to 166 °C.

As for `N#CC(=C1CCCN1)c1ccc(-c2ccccc2)cc1`, the melting point was 168 to 170 °C.

Molecule `COCOc1ccc(-n2c(=O)c3c(CN(C)Cc4ccccc4)c(-c4ccc(NC(=O)NOC)cc4)sc3n(Cc3c(F)cccc3F)c2=O)cc1` displayed a melting point of 189 to 191 °C.

For the molecule `COC(=O)NCCC1CN=C(c2cc3cccc(N(C)S(=O)(=O)c4cccs4)c3[nH]2)S1` (centres undefined), the melting point lay within 201 to 203 °C.

Consider `CCOC(=O)C1(c2ccccc2)CCN(C(C)=O)C(=O)C1` (centres undefined), for which the melting point lay within 45 to 46 °C.

Consider `CC(=O)SCC(Cc1ccccc1)C(=O)Nc1ccc(C(=O)OCc2ccccc2)cc1` (centres undefined), for which the melting point is 139 to 140 °C.

Molecule `CN1CCC2(CC1)OC(=O)c1ccccc12` registered a melting point of 147 to 148 °C.

`COCCOCCOCCOc1cc([N+](=O)[O-])c([N+](=O)[O-])cc1OCCOCCOCCOC` had a melting point of 43 to 45 °C.

Regarding `CCOC(=O)N1CCc2nc3ccc(N)cc3c(C)c2CC1`, the melting point was 214 to 216 °C.

In turn, `Cn1c(CNC2CCS(=O)(=O)CC2)cc2cc(NC(=O)c3ccc(OCC4CC4)cc3)ccc21` registered a melting point of 200 to 201 °C.

Take `CCOC(=O)c1cc2c(cn1)[nH]c1ccc(N3CCCC3)cc12`: the melting point was in the range of 259 to 261 °C.

Take `CNC(=O)c1ccccc1Nc1nc(Nc2ccc3c(c2)NCCNC3=O)ncc1Cl`: the melting point was 232 to 237 °C.

Regarding `O=C(O)c1cn(-c2ccc(F)cc2F)c2cc(N3CCC4(C3)OCCCO4)c(F)cc2c1=O`, the melting point fell in the range of 168 to 170 °C.

The molecule `CC1(C)COC(CCCc2ccc(NC=NO)cc2)OC1` had a melting point of 138 to 140 °C.

For `O=C(Cc1ccccc1N1CCCC1)N1C[C@@H]2[C@H](F)CCC(c3ccccc3)(c3ccccc3)[C@@H]2C1`, the melting point is 170 °C.

In the case of `COc1cc2c(-c3cc4cccnc4[nH]3)cn(C)c2cc1OC(C)C`, the melting point is 216 °C.

On to `CC(=O)Nc1cc2c(cc1[N+](=O)[O-])[C@@H](NC(C)=O)[C@H](O)C(C)(C)O2` (relative stereo), for which the melting point was in the range of 256 to 259 °C.

For the molecule `COc1c(C2CCN(CCCCNC(=O)c3ccc(-c4ccc(C#N)cc4)cc3)CC2)ccc2c1CCCC2`, the melting point turned out to be 154 °C.

`CCCCCNS(=O)(=O)NC(=O)OCc1ccc(OCCOC)cc1Oc1ncc(C(F)(F)F)cc1Cl` yielded a melting point of 153 to 155 °C.

For the molecule `N#Cc1ccc(C2C(=O)N(CC3CC3)Cc3cncn32)cc1` (centres undefined), the melting point lay in the range of 146 to 147 °C.

`ClCc1nc2sc3c(c2c(-c2ccc(Cl)cc2)c1Cl)CCN(Cc1ccccc1)C3` registered a melting point of 204 to 205 °C.

Take `O=C1NCC=Cc2cc[nH]c21`: the melting point fell in the range of 155 to 160 °C.

The molecule `OCC(CO)OCc1ccccc1` registered a melting point of 38 to 39 °C.

`O=C(CCCN1CCC(c2ccccc2Cc2ccccc2)CC1)c1ccc(F)cc1` yielded a melting point of 100 to 102 °C.

`N#CCC(CC#N)c1cccnc1` had a melting point of 60 to 61 °C.

The molecule `CCCCCCCCCCOc1cnc(-c2ccc(CCCCCC(C)OC(C)=O)cc2)nc1` (centres undefined) gave a melting point of 72 to 73 °C.

Consider `COc1ccc(C2=NN(CCCCOc3ccc(C4=NNC(=O)C4(C)C)c(F)c3F)C(=O)C2(C)C)c2cc(C(F)(F)F)sc12`, for which the melting point lay in the range of 167 to 168 °C.

Turning to `CC(=O)c1cc(-c2cccc(F)c2)c(=O)n2c1-c1sccc1CC2`, the melting point lay in the range of 109 to 110 °C.

Consider `COc1ccc2c(c1)CCc1cc(=O)[nH]nc1-2`, for which the melting point fell in the range of 246 to 248 °C.

In turn, `COC(=O)c1cc(O)cnc1C1=NC(=O)C(C)(C(C)C)N1` (centres undefined) yielded a melting point of 200 to 205 °C.

As for `O=C1CCC(N2Cc3c(OCc4ccc(CN5CCCCC5)cc4)cccc3C2=O)C(=O)N1` (centres undefined), the melting point was 186 to 188 °C.

Molecule `Cc1ccc(-c2nc(NC(=O)c3nnn[nH]3)cs2)cc1` yielded a melting point of 228 to 230 °C.

`COc1ccc(NC(=N)c2ccccc2)cc1NC(=O)/C=C/c1ccccc1C(F)(F)F` returned a melting point of 208 to 210 °C.

Turning to `COC(=O)[C@H](Cc1ccc(OS(=O)(=O)c2ccc(C)cc2)cc1)NC(=O)OC(C)(C)C`, the melting point lay within 78.8 to 79.5 °C.

On to `O=S1(=O)OCCN1Cc1ccccc1Cl`, for which the melting point was 61 to 62.5 °C.

Regarding `COCCc1nc2c(N)nc3ccccc3c2n1CCCNS(C)(=O)=O`, the melting point was 193 to 194 °C.

For the molecule `ICCCOc1ccc(OCCCI)cc1`, the melting point was 93 to 95 °C.

`Cc1cc(Cn2c(-c3ccccc3)nc(Cl)c2CC(=O)O)ccc1OCc1ccccc1`: the melting point fell in the range of 177 to 178 °C.

Turning to `NC(=O)C1(c2c(F)cccc2F)CC1`, the melting point is 137 to 138 °C.

In turn, `CCCc1nc(C(=O)CC)c(C)[nH]1` came in with a melting point of 63 to 67 °C.

Molecule `O=C(SCCC(=O)N1C(C(=O)NO)CSC1c1ccccc1O)c1ccccc1` (centres undefined) came in with a melting point of 105 to 110 °C.

Regarding `CC(C)N(CC(=O)c1ccc(F)cc1)c1ccccc1`, the melting point was in the range of 78 to 81 °C.

`CC(C)(C)[C@H]1CC[C@H](Nc2ncc(CCc3cccnc3)c3ccccc23)CC1` had a melting point of 124 to 125 °C.

In turn, `NC(CF)C(=O)c1ccccc1` (centres undefined) returned a melting point of 40 to 42 °C.

In the case of `O=[N+]([O-])c1ccc(Cl)nc1-c1ccncc1`, the melting point is 137 to 138 °C.

The molecule `O=C(O)c1ccc(OCCCOc2ccccc2)cc1O` showed a melting point of 161 °C.

Take `Cc1sc2c(c1C)C(c1ccc(Cl)cc1)=NC(CC(=O)NCc1cccnc1)c1nnc(C)n1-2` (centres undefined): the melting point is 180 to 183 °C.

Consider `CC(C)Cn1nc(-c2ccc(F)cc2F)cc(COS(C)(=O)=O)c1=O`, for which the melting point is 86.7 to 88.6 °C.

For the molecule `CCCCN(CCCC12CC3CC(CC(C3)C1)C2)C(=O)NCCCc1ccncc1`, the melting point fell in the range of 79.8 to 80.4 °C.
